Target: T1, DPP-IV (dipeptidyl peptidase IV from porcine kidney) (Sus scrofa, UniProt P22411)
T1 construct: dipeptidyl peptidase IV from porcine kidney, product of SIGMA; purchased SIGMA; host or cells: porcine kidney (tissue-derived enzyme)
Experiment: Test of resistance to dipeptidyl peptidase IV (DPP-IV)
Assay type: in vitro ADME
Conditions: half-life (t1/2) in DPP-IV solution at 37° C., GLP-1 of Comparative Example 1 defined as standard (=1)
Method: Each solution mixture was adjusted with 100 mM sodium phosphate buffer to 100 μl in total and allowed to react at 37° C. A 10 μaliquot of the reaction solution was mixed with 15 μl of 10% trifluoroacetic acid prepared in advance in another Eppendorf tube.

T1 sequence (P22411 whole entry): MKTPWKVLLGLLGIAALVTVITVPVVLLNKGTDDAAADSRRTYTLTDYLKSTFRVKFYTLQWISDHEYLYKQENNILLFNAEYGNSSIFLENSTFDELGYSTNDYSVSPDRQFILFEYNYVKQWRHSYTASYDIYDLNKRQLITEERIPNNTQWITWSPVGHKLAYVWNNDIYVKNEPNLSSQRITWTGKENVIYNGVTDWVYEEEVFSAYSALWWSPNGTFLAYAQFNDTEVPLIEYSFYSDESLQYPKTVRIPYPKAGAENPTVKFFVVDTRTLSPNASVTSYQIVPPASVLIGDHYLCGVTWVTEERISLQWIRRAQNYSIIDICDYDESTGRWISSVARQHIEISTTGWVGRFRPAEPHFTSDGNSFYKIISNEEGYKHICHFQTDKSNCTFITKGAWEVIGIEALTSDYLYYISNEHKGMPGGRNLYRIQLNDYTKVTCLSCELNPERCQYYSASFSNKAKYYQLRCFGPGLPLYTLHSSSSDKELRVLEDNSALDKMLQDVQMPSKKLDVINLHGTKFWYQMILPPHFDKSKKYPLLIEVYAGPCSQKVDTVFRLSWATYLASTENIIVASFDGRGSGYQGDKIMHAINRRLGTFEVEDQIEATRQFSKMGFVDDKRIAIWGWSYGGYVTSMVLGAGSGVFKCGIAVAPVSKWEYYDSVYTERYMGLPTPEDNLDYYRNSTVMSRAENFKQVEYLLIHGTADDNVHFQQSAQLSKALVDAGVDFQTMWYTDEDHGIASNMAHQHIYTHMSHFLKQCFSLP

SMILES | Relative Resistance
CC[C@H](C)[C@H](NC(=O)[C@H](Cc1ccccc1)NC(=O)[C@H](CCC(=O)O)NC(=O)[C@H](CCCCN)NC(=O)[C@H](C)NC(=O)[C@H](C)NC(=O)[C@H](CCC(N)=O)NC(=O)[C@H](CSCC(=O)N[C@@H]1O[C@H](CO)[C@@H](O[C@@H]2O[C@H](CO)[C@@H](O[C@@H]3O[C@H](CO[C@H]4O[C@H](CO)[C@@H](O)[C@H](O)[C@@H]4O[C@@H]4O[C@H](CO)[C@@H](O[C@@H]5O[C@H](CO[C@]6(C(=O)O)C[C@H](O)[C@@H](NC(C)=O)[C@H]([C@H](O)[C@H](O)CO)O6)[C@H](O)[C@H](O)[C@H]5O)[C@H](O)[C@H]4NC(C)=O)[C@@H](O)[C@H](O[C@H]4O[C@H](CO)[C@@H](O)[C@H](O)[C@@H]4O[C@@H]4O[C@H](CO)[C@@H](O[C@@H]5O[C@H](CO[C@]6(C(=O)O)C[C@H](O)[C@@H](NC(C)=O)[C@H]([C@H](O)[C@H](O)CO)O6)[C@H](O)[C@H](O)[C@H]5O)[C@H](O)[C@H]4NC(C)=O)[C@@H]3O)[C@H](O)[C@H]2NC(C)=O)[C@H](O)[C@H]1NC(C)=O)NC(=O)[C@H](CCC(=O)O)NC(=O)[C@H](CC(C)C)NC(=O)[C@H](Cc1ccc(O)cc1)NC(=O)[C@H](CO)NC(=O)[C@H](CO)NC(=O)[C@@H](NC(=O)[C@H](CC(=O)O)NC(=O)[C@H](CO)NC(=O)[C@@H](NC(=O)[C@H](Cc1ccccc1)NC(=O)[C@@H](NC(=O)CNC(=O)[C@H](CCC(=O)O)NC(=O)[C@H](C)NC(=O)[C@@H](N)Cc1c[nH]cn1)[C@@H](C)O)[C@@H](C)O)C(C)C)C(=O)N[C@@H](CSCC(=O)N[C@@H]1O[C@H](CO)[C@@H](O[C@@H]2O[C@H](CO)[C@@H](O[C@@H]3O[C@H](CO[C@H]4O[C@H](CO)[C@@H](O)[C@H](O)[C@@H]4O[C@@H]4O[C@H](CO)[C@@H](O[C@@H]5O[C@H](CO[C@]6(C(=O)O)C[C@H](O)[C@@H](NC(C)=O)[C@H]([C@H](O)[C@H](O)CO)O6)[C@H](O)[C@H](O)[C@H]5O)[C@H](O)[C@H]4NC(C)=O)[C@@H](O)[C@H](O[C@H]4O[C@H](CO)[C@@H](O)[C@H](O)[C@@H]4O[C@@H]4O[C@H](CO)[C@@H](O[C@@H]5O[C@H](CO[C@]6(C(=O)O)C[C@H](O)[C@@H](NC(C)=O)[C@H]([C@H](O)[C@H](O)CO)O6)[C@H](O)[C@H](O)[C@H]5O)[C@H](O)[C@H]4NC(C)=O)[C@@H]3O)[C@H](O)[C@H]2NC(C)=O)[C@H](O)[C@H]1NC(C)=O)C(=O)N[C@@H](Cc1c[nH]c2ccccc12)C(=O)N[C@@H](CC(C)C)C(=O)N[C@H](C(=O)N[C@@H](CCCCN)C(=O)NCC(=O)N[C@@H](CCCNC(=N)N)C(=O)NCC(=O)O)C(C)C [Example 3, 22 and 30Cys-disialo oligosaccharide Chain Added GLP-1] | 32.5
CC[C@H](C)[C@H](NC(=O)[C@H](Cc1ccccc1)NC(=O)[C@H](CCC(=O)O)NC(=O)[C@H](CCCCN)NC(=O)[C@H](C)NC(=O)[C@H](C)NC(=O)[C@H](CCC(N)=O)NC(=O)[C@H](CSCC(=O)N[C@@H]1O[C@H](CO)[C@@H](O[C@@H]2O[C@H](CO)[C@@H](O[C@@H]3O[C@H](CO[C@H]4O[C@H](CO)[C@@H](O)[C@H](O)[C@@H]4O[C@@H]4O[C@H](CO)[C@@H](O[C@@H]5O[C@H](CO[C@]6(C(=O)O)C[C@H](O)[C@@H](NC(C)=O)[C@H]([C@H](O)[C@H](O)CO)O6)[C@H](O)[C@H](O)[C@H]5O)[C@H](O)[C@H]4NC(C)=O)[C@@H](O)[C@H](O[C@H]4O[C@H](CO)[C@@H](O)[C@H](O)[C@@H]4O[C@@H]4O[C@H](CO)[C@@H](O[C@@H]5O[C@H](CO[C@]6(C(=O)O)C[C@H](O)[C@@H](NC(C)=O)[C@H]([C@H](O)[C@H](O)CO)O6)[C@H](O)[C@H](O)[C@H]5O)[C@H](O)[C@H]4NC(C)=O)[C@@H]3O)[C@H](O)[C@H]2NC(C)=O)[C@H](O)[C@H]1NC(C)=O)NC(=O)[C@H](CCC(=O)O)NC(=O)[C@H](CC(C)C)NC(=O)[C@H](Cc1ccc(O)cc1)NC(=O)[C@H](CO)NC(=O)[C@H](CO)NC(=O)[C@@H](NC(=O)[C@H](CC(=O)O)NC(=O)[C@H](CO)NC(=O)[C@@H](NC(=O)[C@H](Cc1ccccc1)NC(=O)[C@@H](NC(=O)CNC(=O)[C@H](CCC(=O)O)NC(=O)[C@H](C)NC(=O)[C@@H](N)Cc1c[nH]cn1)[C@@H](C)O)[C@@H](C)O)C(C)C)C(=O)N[C@@H](C)C(=O)N[C@@H](Cc1c[nH]c2ccccc12)C(=O)N[C@@H](CC(C)C)C(=O)N[C@H](C(=O)N[C@@H](CCCCN)C(=O)NCC(=O)N[C@@H](CSCC(=O)N[C@@H]1O[C@H](CO)[C@@H](O[C@@H]2O[C@H](CO)[C@@H](O[C@@H]3O[C@H](CO[C@H]4O[C@H](CO)[C@@H](O)[C@H](O)[C@@H]4O[C@@H]4O[C@H](CO)[C@@H](O[C@@H]5O[C@H](CO[C@]6(C(=O)O)C[C@H](O)[C@@H](NC(C)=O)[C@H]([C@H](O)[C@H](O)CO)O6)[C@H](O)[C@H](O)[C@H]5O)[C@H](O)[C@H]4NC(C)=O)[C@@H](O)[C@H](O[C@H]4O[C@H](CO)[C@@H](O)[C@H](O)[C@@H]4O[C@@H]4O[C@H](CO)[C@@H](O[C@@H]5O[C@H](CO[C@]6(C(=O)O)C[C@H](O)[C@@H](NC(C)=O)[C@H]([C@H](O)[C@H](O)CO)O6)[C@H](O)[C@H](O)[C@H]5O)[C@H](O)[C@H]4NC(C)=O)[C@@H]3O)[C@H](O)[C@H]2NC(C)=O)[C@H](O)[C@H]1NC(C)=O)C(=O)NCC(=O)O)C(C)C [Example 4, 22 and 36Cys-disialo oligosaccharide Chain Added GLP-1] | 22.5
